# From patent publication US10716795B2, “Steroid analogues for neuroprotection” (Emory University, priority 2008, dated 2020)
# Where a name gives a salt, the structure may show the parent alone.
# Experiments:
# Primary cortical cells = assay: MTT assay of glutamate toxicity in primary cortical cells; type: cell-based; conditions: for reduction in cell death at 5 μM: 5 μM compound, glutamate 0.5 μM 24 h; for reduction in cell death best concentration: 24 h pre-treatment, then glutamate 0.5 μM 24 h, at the best concentration; for best concentration (for reduction in cell death): tested 0.1-80 μM, glutamate 0.5 μM; for cell survival / reduction in cell death (in words): glutamate toxicity, cortical neurons
# Description: Primary cortical cells were seeded in multi-well plates and cultured for 8 days. […] Cells were next exposed to glutamate (0.5 μM) for the following 24 h. Cytotoxicity was assessed by the MTT [3-(4,5-dimethylthiazol-2-yl)-2,5-diphenyltetrazolium bromide] assay, which is based on the ability of a mitochondrial dehydrogenase enzyme from viable cells to cleave the tetrazolium rings of the pale yellow MTT. This reaction forms dark blue formazan crystals which are largely impermeable to cell membranes, thus resulting in their accumulation within healthy cells. Solubilization of the cells results in the liberation of the crystals, which are then also solubilized. The number of surviving cells is directly proportional to the level of the formazan product created.
# cerebral edema = cerebral edema assay in whole animal model of TBI (cortical contusion); type: in vivo, rat; conditions: for efficacy in the cerebral edema assay (edema reduction) relative to PROG or group / mean % difference edema (injured vs non-injured tissue): male rats, cortical contusion; for efficacy in the cerebral edema assay (edema reduction) relative to PROG or group: two 8 mg/kg doses at 1 h and 6 h; for mean % difference edema (injured vs non-injured tissue): two 8 mg/kg doses at 1 h and 6 h post-surgery, brain tissue 24 hours post brain injury; for edema compared to subjects treated with vehicle: rat brain tissue 24 hours post brain injury
# Description: Anesthetized male rats were first subjected to cortical contusion and were then given two 8 mg/kg doses of the test compound, the first at 1 h post-surgery and the second at 6 h. The animals were then sacrificed and tissue samples were taken from both injured and non-injured sections of the brain. Wet and dry weights were collected for each sample and cerebral edema (% water content) was determined as the difference in wet and dry weights divided by the wet weight. A “% mean difference” value could then be calculated based on the relative edema difference between injured and non-injured tissue samples for a given animal. […] The “vehicle” group were subjected to cortical injury but received only the drug carrier (22.5% 2-hydroxypropyl-β-cyclodextrine in water). All experimental treatments given by injection were made in stock solutions using 2-Hydroxypropyl-b-cyclodextrin (HBC; 45% w/v solution in H2O) as the solvent. These experimental solutions were then diluted 1:1 with sterile water for a final concentration of HBC of 22.5%.
# [1] = pharmacokinetic analysis in non-injury whole animal rat study (serum levels); conditions: IV 10 mg/kg, serum over 12 h
# Description: Select compounds were submitted for pharmacokinetic analysis in a non-injury whole animal rat study.
# The compounds were intravenously (IV) dosed at 10 mg/kg and serum samples were taken at several time points over the course of 12 h. Serum concentration levels were determined for the analogues, as well as for their respective parent compound.
# physchem = assay: physchem
# Description: Several compounds were screened for solubility (FIG. 2). Solubility testing was done in phosphate buffered saline, which is considered to be a good model system for physiological conditions. Compounds were added in small portions at room temperature with stirring until a visible endpoint of saturation was reached.
# [2] = cited from earlier work
# [3] = PROG IP at 4 mg/kg, male rats; cited from earlier work
# [4] = tested on: PR-mediated gene transcription; assay: PR-mediated gene transcription; type: cell-based
# glutathione reductase = glutathione reductase activity following TBI; type: in vivo; conditions: relative to progesterone and allopregnanolone
# [5] = aqueous buffer, thermodynamic from solid
Structure (SMILES),reduction in cell death at 5 μM (Primary cortical cells),reduction in cell death best concentration (Primary cortical cells),best concentration (for reduction in cell death) (Primary cortical cells),efficacy in the cerebral edema assay (edema reduction) relative to PROG or group (cerebral edema),in vivo stability of amino acid side chain / conversion to parent compound [1],further results
"CC(=O)[C@H]1CC[C@H]2[C@@H]3CC[C@H]4C[C@H](O)CC[C@]4(C)[C@H]3CC[C@]12C [ALLO, allopregnanolone, reference compound]",−3%,40%,80 µM,–,–,–
"CC(=O)[C@H]1CCC2C3CCC4=C[C@@H](OC(=O)[C@@H](N)C(C)C)CC[C@]4(C)C3CC[C@@]21C (stereo partly drawn) [Compound P1-31, 3β-L-Valine-progesterone-HC]",–,–,–,equivalent efficacy to progesterone,cleaved almost immediately,mean % difference edema (injured vs non-injured tissue) (cerebral edema): 2.2%; edema compared to subjects treated with vehicle (cerebral edema): decrease in edema; solubility (physchem; [5]): 3850 µg/mL
"CC(=O)[C@H]1CC[C@H]2[C@@H]3CCC4=C[C@@H](OC(=O)[C@@H]5CCCN5)CC[C@]4(C)[C@H]3CC[C@]12C [Compound P1-33, 3β-L-Proline-progesterone-HCl]",–,–,–,–,cleaved almost immediately,–
"CC(C)[C@H](N)C(=O)O[C@@H](C)[C@H]1CCC2C3CCC4=CC(=O)CC[C@]4(C)C3CC[C@@]21C (stereo partly drawn) [Compound P1-57, 20-S-L-Valine-progesterone HCl Salt]",23%,30%,10 µM,–,–,cell survival / reduction in cell death (in words) (Primary cortical cells): significant reductions in cell death
"CC(=O)[C@H]1CCC2C3CCC4=C/C(=N/OC(=O)[C@@H](N)Cc5c[nH]c6ccccc56)CC[C@]4(C)C3CC[C@@]21C (stereo partly drawn) [Compound P1-79, O-L-Tryptophan-C3-oxime-progesterone HCl Salt]",–,–,–,–,–,mean % difference edema (injured vs non-injured tissue) (cerebral edema): 1.9%; edema compared to subjects treated with vehicle (cerebral edema): decrease in edema
"CC(=O)[C@H]1CCC2C3CC[C@H]4C[C@H](OC(=O)[C@@H](N)C(C)C)CC[C@]4(C)C3CC[C@@]21C (stereo partly drawn) [Compound P1-131, 3α-L-Valine-5α-pregnan-20-one HCl Salt]",–,–,–,greatest edema reduction among the ALLO isomer group,"stable for a prolonged period of time and only gradually converted to its parent, ALLO",–
"CC(=O)[C@H]1CCC2C3CC[C@@H]4C[C@H](OC(=O)[C@@H](N)C(C)C)CC[C@]4(C)C3CC[C@@]21C (stereo partly drawn) [Compound P1-133, 3α-L-Valine-5-pregnane-20-one HCl Salt]",–,–,–,–,–,solubility (physchem; [5]): 330 µg/mL
"CC(=O)[C@H]1CC[C@H]2[C@@H]3CCC4=C/C(=N/OC(=O)[C@@H](N)C(C)C)CC[C@]4(C)[C@H]3CC[C@]12C [Compound P1-185, 3-Valine-E-oxime-progesterone HCl]",27%,27%,5 µM,equivalent efficacy to progesterone,–,solubility (physchem; [5]): 13000 µg/mL; cell survival / reduction in cell death (in words) (Primary cortical cells): highest levels of cell survival among the compounds screened
"CC(=O)[C@H]1CC[C@H]2[C@@H]3CCC4=C/C(=N\OC(=O)[C@@H](N)C(C)C)CC[C@]4(C)[C@H]3CC[C@]12C [Compound P1-186, 3-Valine-Z-oxime-progesterone HCl]",34%,34%,5 µM,average reduction in edema levels almost twice that of PROG,readily cleaved to give primarily the parent oxime P2-02,"solubility (physchem; phosphate buffered saline, room temperature, visible endpoint of saturation): 15200 µg/mL; cell survival / reduction in cell death (in words) (Primary cortical cells): highest levels of cell survival among the compounds screened"
"CC(=O)[C@H]1CCC2C3CCC4=CC(=O)CC[C@]4(C)C3CC[C@@]21C (some centres unmarked) [PROG, progesterone, reference compound]",4%,42%,20 µM,–,–,"mean % difference edema (injured vs non-injured tissue) (cerebral edema): 2.0%; edema compared to subjects treated with vehicle (cerebral edema): decrease in edema; reduction of mortality ([2]; 100 moderate to severe TBI patients, 3 days intravenous treatment): over 60%; functional outcomes ([2]; 30 days post-injury): significantly improved functional outcomes; maximum serum concentration [3]: 28 ng/mL"
"CC(=O)[C@@H]1CCC2C3CCC4=CC(=O)CC[C@@]4(C)C3CC[C@]21C (stereo partly drawn) [ent-PROG, ent-Progesterone]",–,–,–,–,–,activation of PR-mediated gene transcription [4]: does not activate; glutathione reductase activity (glutathione reductase): significantly increased glutathione reductase activity
